PubChem BioAssay AID248 (DTP/NCI, 2004)
Inconclusive results and toxic doses are left out. Rule as the data show it: active = T/C of 150% or more; inactive = T/C below 125%.

System: L1210 leukemia ip in BDF1 mice, survival T/C
Assay: NCI In Vivo Anticancer Drug Screen. Data for tumor model L1210 Leukemia (intraperitoneal) in B6D2F1 (BDF1) mice
Settings: endpoint: mean survival time, higher = longer survival
Outline: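 In this screen, tumor-bearing mice given compound are compared to those given vehicle, and their survival values are reported as a treated-to-control quotient.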

[1] = dose: 100.0 mg/kg/injection, schedule: Q01DX009 (ip), vehicle: Klucel (hydroxypropylcellulose) (HPC)
[2] = dose: 200.0 mg/kg/injection, schedule: Q01DX009 (ip), vehicle: Klucel (hydroxypropylcellulose) (HPC)
[3] = dose: 400.0 mg/kg/injection, schedule: Q01DX009 (ip), vehicle: Klucel (hydroxypropylcellulose) (HPC)
[4] = dose: 100.0 mg/kg/injection, schedule: Q04DX003 (ip), vehicle: Klucel (hydroxypropylcellulose) (HPC)
[5] = dose: 200.0 mg/kg/injection, schedule: Q04DX003 (ip), vehicle: Klucel (hydroxypropylcellulose) (HPC)
[6] = dose: 400.0 mg/kg/injection, schedule: Q04DX003 (ip), vehicle: Klucel (hydroxypropylcellulose) (HPC)
[7] = dose: 100.0 mg/kg/injection, schedule: Q04DX003 (ip), vehicle: saline with Tween-80
[8] = dose: 200.0 mg/kg/injection, schedule: Q04DX003 (ip), vehicle: saline with Tween-80
[9] = dose: 400.0 mg/kg/injection, schedule: Q04DX003 (ip), vehicle: saline with Tween-80
[10] = dose: 100.0 mg/kg/injection, schedule: Q01DX001 (ip), vehicle: saline
[11] = dose: 200.0 mg/kg/injection, schedule: Q01DX001 (ip), vehicle: saline
[12] = dose: 400.0 mg/kg/injection, schedule: Q01DX001 (ip), vehicle: saline

Measured: T/C

CCOC(=O)N1CCN(P(=O)(c2ccccc2)N2CCN(C(=O)OCC)CC2)CC1
inactive: [1] 93 % of control | [2] 93 % of control | [3] 96 % of control

[CH3][Sb]([CH3])[S]C1OC(CO)C(O)C(O)C1O (stereo not given)
inactive: dose: 12.5 mg/kg/injection, schedule: Q04DX003 (ip), vehicle: Klucel (hydroxypropylcellulose) (HPC) 99 % of control | dose: 25.0 mg/kg/injection, schedule: Q04DX003 (ip), vehicle: Klucel (hydroxypropylcellulose) (HPC) 89 % of control | dose: 50.0 mg/kg/injection, schedule: Q04DX003 (ip), vehicle: Klucel (hydroxypropylcellulose) (HPC) 95 % of control

N#CC(=N)N1CCCCC1
inactive: dose: 100.0 mg/kg/injection, schedule: Q04DX003 (ip), vehicle: saline 98 % of control | dose: 200.0 mg/kg/injection, schedule: Q04DX003 (ip), vehicle: saline 112 % of control | dose: 400.0 mg/kg/injection, schedule: Q04DX003 (ip), vehicle: saline 109 % of control

CCOP(=O)(Nc1cc2c(cc1Cl)-c1ccccc1C2=O)OCC
inactive: dose: 100.0 mg/kg/injection, schedule: Q01DX001 (ip), vehicle: carboxymethylcellulose (CMC) 99 % of control | dose: 200.0 mg/kg/injection, schedule: Q01DX001 (ip), vehicle: carboxymethylcellulose (CMC) 89 % of control | dose: 400.0 mg/kg/injection, schedule: Q01DX001 (ip), vehicle: carboxymethylcellulose (CMC) 91 % of control

Cc1ccc(NS(=O)(=O)c2ccccc2)cc1Cl
inactive: [1] 106 % of control | [4] 108 % of control | [2] 109 % of control | [5] 98 % of control | [3] 98 % of control | [6] 97 % of control

c1ccc(-c2cc(-c3cc(-c4ccccc4)on3)no2)cc1
inactive: dose: 50.0 mg/kg/injection, schedule: Q04DX003 (ip), vehicle: saline with Tween-80 98 % of control | [7] 98 % of control | [8] 101 % of control

CCCCNC(=O)Nc1ccc(OC)cc1OC
inactive: [1] 101 % of control | [4] 92 % of control | [2] 96 % of control | [5] 95 % of control | [3] 118 % of control | [6] 95 % of control

CS/C(N)=N\NC(N)=S
inactive: dose: 100.0 mg/kg/injection, schedule: Q01DX001 (ip), vehicle: Klucel (hydroxypropylcellulose) (HPC) 96 % of control | dose: 200.0 mg/kg/injection, schedule: Q01DX001 (ip), vehicle: Klucel (hydroxypropylcellulose) (HPC) 88 % of control

CC(O)c1ccc2ccccc2c1 (stereo not given)
inactive: [7] 98 % of control | [8] 101 % of control | [9] 96 % of control

N#CC(C#N)C1c2ccccc2C([N+](=O)[O-])c2ccccc21 (stereo not given)
inactive: dose: 100.0 mg/kg/injection, schedule: Q01DX009 (ip), vehicle: saline with Tween-80 103 % of control | [7] 88 % of control | dose: 200.0 mg/kg/injection, schedule: Q01DX009 (ip), vehicle: saline with Tween-80 96 % of control | [8] 93 % of control | dose: 400.0 mg/kg/injection, schedule: Q01DX009 (ip), vehicle: saline with Tween-80 98 % of control | [9] 101 % of control

CC1c2c(ccc3c2CCC=C3)CCC1CC1=CCCc2ccc3ccccc3c21 (stereo not given)
inactive: dose: 100.0 mg/kg/injection, schedule: Q01DX009 (ip), vehicle: saline 107 % of control | [4] 103 % of control | dose: 200.0 mg/kg/injection, schedule: Q01DX009 (ip), vehicle: saline 95 % of control | [5] 90 % of control | dose: 400.0 mg/kg/injection, schedule: Q01DX009 (ip), vehicle: saline 93 % of control | [6] 95 % of control

COC(=O)c1cc(C)cc([N+](=O)[O-])c1C
inactive: dose: 50.0 mg/kg/injection, schedule: Q01DX001 (ip), vehicle: saline 91 % of control | [10] 111 % of control | [11] 100 % of control | [12] 102 % of control

Cc1ccc(CCS(=O)(=O)N=[N+]=[N-])cc1
inactive: [10] 101 % of control | [11] 97 % of control | [12] 101 % of control

CCOC(=O)c1ccc(N(CCOS(C)(=O)=O)CCOS(C)(=O)=O)cc1
inactive: dose: 7.1 mg/kg/injection, schedule: Q01DX015 (ip), vehicle: saline 98 % of control | dose: 10.0 mg/kg/injection, schedule: Q01DX015 (ip), vehicle: saline 102 % of control | dose: 16.0 mg/kg/injection, schedule: Q01DX015 (ip), vehicle: saline 108 % of control | dose: 25.0 mg/kg/injection, schedule: Q01DX015 (ip), vehicle: saline 113 % of control | dose: 75.0 mg/kg/injection, schedule: Q01DX001 (ip), vehicle: saline 109 % of control | dose: 100.0 mg/kg/injection, schedule: Q01DX015 (ip), vehicle: saline 87 % of control | dose: 300.0 mg/kg/injection, schedule: Q01DX001 (ip), vehicle: saline 120 % of control | dose: 600.0 mg/kg/injection, schedule: Q01DX001 (ip), vehicle: saline 122 % of control | dose: 1000.0 mg/kg/injection, schedule: Q01DX001 (ip), vehicle: saline 116 % of control
